{"source": "patent US6452009B1", "about": "“4-unsubstituted dihydroisoquinolinone derivatives and combinatorial libraries thereof” (Lion Bioscience AG, priority 1999, dated 2002)"}
{"tested_on": "Streptococcus pyogenes (ATCC #97-03 14289)", "test": "Anti-microbial screen (growth inhibition, OD 570 nm)", "type": "cell-based", "settings": "ATCC97, 4 h", "experimental": "(§1) Streptococcus pyogenes (ATCC #97-03 14289) are grown in Todd Hewitt Broth (THB) (Difco Laboratories #0492-17-6) overnight until they reach an optical density of (OD=0.636@570 nm) by reading 0.1 ml in a 96 well microtiter plate in a Molecular Devices Thermomax. This preparation is kept frozen as stocks in 30% v/v glycerol in 1.5 ml aliquots at −70° C. until use. Prior to screening, 1.5 ml aliquots are thawed and diluted into 50 ml THB. 200 μl of this dilution is added to 92 wells of microtiter plate. To three wells THB (200 μl) is added to serve as a blank and a sterility control. Test compounds in DMSO and appropriate concentrations of DMSO are added to Growth/Solvent Controls at 0 time. Plates are read at 0 time at 570 nm in the Molecular Devices plate reader to obtain compounds correction factors for insoluble or colored compounds. Plates are read again at 4 hrs.\n(§2) Compounds are assayed at a concentration of 170 μg/ml. Percent inhibition for each compound is calculated using the following formulae:\n(§3) Color correct=(O.D. 0 hr −Blank 0 hr)—(Solvent Control 0 hr−Blank 0 hr)\n(§4) % Inhibition=100−(O.D. test compound 4 hr−Blank 4 hr−color correct) divided by (O.D. growth/solvent control 4 hr−Blank 4 hr)", "units": {"inhibition at 170 µg/mL": "%"}}
{"smiles": "CCOP(=O)(CC(=O)Nc1ccc2c(c1)C(=O)N(CCC(=O)N(CCN(C)C)CC(N)=O)C(c1ccc(C(F)(F)F)cc1)C2)OCC", "note": "(stereo not shown)", "inhibition at 170 µg/mL": 98.9}
{"smiles": "C=CCN(CC(N)=O)C(=O)CCN1C(=O)c2cc(NC(=O)CP(=O)(OCC)OCC)ccc2CC1c1cccc(Oc2ccc(Cl)c(Cl)c2)c1", "note": "(stereo not shown)", "inhibition at 170 µg/mL": 98.5}
{"tested_on": "Streptococcus pyogenes (ATCC #97-03 14289)", "test": "Anti-microbial screen (growth inhibition, OD 570 nm)", "type": "cell-based", "settings": "ATCC97, compounds assayed at 170 μg/ml, growth in Todd Hewitt Broth read at 570 nm at 4 hrs, read-out: % Inhibition", "experimental": "as §1, §2, §3, §4", "units": {"inhibition at 170 µg/mL": "%"}}
{"smiles": "CN(C)CCN(CC(N)=O)C(=O)CCN1C(=O)c2cc(NC(=O)c3ccccc3F)ccc2CC1c1ccc(C(C)(C)C)cc1", "note": "(stereo not shown)", "inhibition at 170 µg/mL": 98.2}
{"smiles": "CCCCCCCC(=O)Nc1ccc2c(c1)C(=O)N(CCC(=O)N(CCC)CC(N)=O)C(c1ccc(OCCCN(C)C)cc1)C2", "note": "(stereo not shown)", "inhibition at 170 µg/mL": 98.8}
{"smiles": "CN(C)CCCOc1ccc(C2Cc3ccc(NC(=O)c4cc(C(F)(F)F)cc(C(F)(F)F)c4)cc3C(=O)N2Cc2ccc(C(=O)N(CC(N)=O)C3CC3)cc2)cc1", "note": "(stereo not shown)", "inhibition at 170 µg/mL": 99.9}
{"smiles": "CCCCCC/C=C/C(=O)Nc1ccc2c(c1)C(=O)N(CCC(=O)N(CCN(C)C)CC(N)=O)C(c1ncc[nH]1)C2", "note": "(stereo not shown)", "inhibition at 170 µg/mL": 99.4}
{"smiles": "Cc1ccc(C2Cc3ccc(NC(=O)COc4ccc5ccccc5c4)cc3C(=O)N2CCC(=O)N(CCN(C)C)CC(N)=O)cc1", "note": "(stereo not shown)", "inhibition at 170 µg/mL": 99.2}
{"smiles": "CCCCCCCC(=O)Nc1ccc2c(c1)C(=O)N(CCC(=O)N(CCN(C)C)CC(N)=O)C(c1ccc(F)c(F)c1)C2", "note": "(stereo not shown)", "inhibition at 170 µg/mL": 98.4}
{"smiles": "CN(C)CCN(CC(N)=O)C(=O)c1ccc(CN2C(=O)c3cc(NC(=O)CCC4CCCC4)ccc3CC2c2ccc(C(F)(F)F)cc2)cc1", "note": "(stereo not shown)", "inhibition at 170 µg/mL": 99}
{"smiles": "CN(C)CCCOc1ccc(C2Cc3ccc(NC(=O)CCC4CCCC4)cc3C(=O)N2CCC(=O)N(CCN(C)C)CC(N)=O)cc1", "note": "(stereo not shown)", "inhibition at 170 µg/mL": 98.6}
{"smiles": "Cc1ccc(C2Cc3ccc(NC(=O)c4cccnc4Cl)cc3C(=O)N2Cc2ccc(C(=O)N(CCN(C)C)CC(N)=O)cc2)cc1", "note": "(stereo not shown)", "inhibition at 170 µg/mL": 98.8}
{"smiles": "C=CCN(CC(N)=O)C(=O)CCN1C(=O)c2cc(NC(=O)C(=O)c3c(C)cc(C)cc3C)ccc2CC1c1ccc(OCCCN(C)C)cc1", "note": "(stereo not shown)", "inhibition at 170 µg/mL": 98.7}
{"smiles": "CC(CC(=O)Nc1ccc2c(c1)C(=O)N(Cc1ccc(C(=O)N(CCN(C)C)CC(N)=O)cc1)C(c1ccc(C(F)(F)F)cc1)C2)CC(C)(C)C", "note": "(stereo not shown)", "inhibition at 170 µg/mL": 98.7}
{"smiles": "CN(C)CCCOc1ccc(C2Cc3ccc(NC(=O)CCC4CCCC4)cc3C(=O)N2Cc2ccc(C(=O)N(CC(N)=O)Cc3ccccc3)cc2)cc1", "note": "(stereo not shown)", "inhibition at 170 µg/mL": 99.5}
{"smiles": "CN(C)CCN(CC(N)=O)C(=O)c1ccc(CN2C(=O)c3cc(NC(=O)CCC4CCCC4)ccc3CC2c2ccc3ccccc3n2)cc1", "note": "(stereo not shown)", "inhibition at 170 µg/mL": 98.6}
{"smiles": "CN(C)CCN(CC(N)=O)C(=O)CCN1C(=O)c2cc(NC(=O)c3cc(C(F)(F)F)cc(C(F)(F)F)c3)ccc2CC1c1ccc2ccccc2n1", "note": "(stereo not shown)", "inhibition at 170 µg/mL": 98.2}
{"smiles": "CN(C)CCN(CC(N)=O)C(=O)CCN1C(=O)c2cc(NC(=O)c3cnccn3)ccc2CC1c1cccc2ccccc12", "note": "(stereo not shown)", "inhibition at 170 µg/mL": 99}
{"smiles": "CC1CCC(C(=O)Nc2ccc3c(c2)C(=O)N(Cc2ccc(C(=O)N(CCN(C)C)CC(N)=O)cc2)C(c2cccc(C#N)c2)C3)CC1", "note": "(stereo not shown)", "inhibition at 170 µg/mL": 98.5}
{"smiles": "COc1cc(OC)cc(C2Cc3ccc(NC(=O)c4ccc(F)c(F)c4)cc3C(=O)N2CCC(=O)N(CCN(C)C)CC(N)=O)c1", "note": "(stereo not shown)", "inhibition at 170 µg/mL": 99.5}
{"smiles": "CN(C)CCN(CC(N)=O)C(=O)c1ccc(CN2C(=O)c3cc(NC(=O)CC4CC5CCC4C5)ccc3CC2c2cccc3ccccc23)cc1", "note": "(stereo not shown)", "inhibition at 170 µg/mL": 99.5}
{"smiles": "CN(C)CCN(CC(N)=O)C(=O)c1ccc(CN2C(=O)c3cc(NC(=O)c4c(F)cccc4F)ccc3CC2c2ccc(C(C)(C)C)cc2)cc1", "note": "(stereo not shown)", "inhibition at 170 µg/mL": 99}
{"smiles": "CN(C)CCN(CC(N)=O)C(=O)CCN1C(=O)c2cc(NC(=O)CC3CC4CCC3C4)ccc2CC1c1ccc2ccccc2n1", "note": "(stereo not shown)", "inhibition at 170 µg/mL": 98.5}
{"smiles": "CN(C)CCN(CC(N)=O)C(=O)CCN1C(=O)c2cc(NC(=O)c3ccc(I)cc3)ccc2CC1c1ccc2ccccc2n1", "note": "(stereo not shown)", "inhibition at 170 µg/mL": 99.5}
{"smiles": "Cc1nnsc1C(=O)Nc1ccc2c(c1)C(=O)N(CCC(=O)N(CCN(C)C)CC(N)=O)C(c1cccc3ccccc13)C2", "note": "(stereo not shown)", "inhibition at 170 µg/mL": 99}
{"smiles": "CN(C)CCN(CC(N)=O)C(=O)CCN1C(=O)c2cc(NC(=O)COc3ccc4ccccc4c3)ccc2CC1c1ccc(F)c(F)c1", "note": "(stereo not shown)", "inhibition at 170 µg/mL": 99.2}
{"smiles": "CN(C)CCN(CC(N)=O)C(=O)CCN1C(=O)c2cc(NC(=O)CC3CCCC3)ccc2CC1c1ccc(C(C)(C)C)cc1", "note": "(stereo not shown)", "inhibition at 170 µg/mL": 99.5}
{"smiles": "CN(C)CCN(CC(N)=O)C(=O)c1ccc(CN2C(=O)c3cc(NC(=O)CCC4CCCC4)ccc3CC2c2ccc(F)c(F)c2)cc1", "note": "(stereo not shown)", "inhibition at 170 µg/mL": 99.9}
{"smiles": "CN(C)CCN(CC(N)=O)C(=O)CCN1C(=O)c2cc(NC(=O)c3ccc(I)cc3)ccc2CC1c1ccccn1", "note": "(stereo not shown)", "inhibition at 170 µg/mL": 99.2}
{"smiles": "CCCC(CCC)C(=O)Nc1ccc2c(c1)C(=O)N(Cc1ccc(C(=O)N(CC(N)=O)Cc3ccccc3)cc1)C(c1ccc(OCCCN(C)C)cc1)C2", "note": "(stereo not shown)", "inhibition at 170 µg/mL": 99.5}
{"smiles": "CCCC(CCC)C(=O)Nc1ccc2c(c1)C(=O)N(Cc1ccc(C(=O)N(CCN(C)C)CC(N)=O)cc1)C(c1cc(OC)cc(OC)c1)C2", "note": "(stereo not shown)", "inhibition at 170 µg/mL": 99.3}
{"smiles": "CN(C)CCN(CC(N)=O)C(=O)CCN1C(=O)c2cc(NC(=O)c3cccc(C(F)(F)F)c3F)ccc2CC1c1ccccc1", "note": "(stereo not shown)", "inhibition at 170 µg/mL": 99.2}
{"smiles": "CCCCCCCC(=O)Nc1ccc2c(c1)C(=O)N(CCC(=O)N(CCN(C)C)CC(N)=O)C(c1ccc(C)cc1)C2", "note": "(stereo not shown)", "inhibition at 170 µg/mL": 99.9}
{"smiles": "CN(C)CCN(CC(N)=O)C(=O)CCN1C(=O)c2cc(NC(=O)c3ccco3)ccc2CC1c1cccc2ccccc12", "note": "(stereo not shown)", "inhibition at 170 µg/mL": 98.2}
{"smiles": "Cc1ccc(C2Cc3ccc(NC(=O)c4ccc(F)c(F)c4)cc3C(=O)N2Cc2ccc(C(=O)N(CCN(C)C)CC(N)=O)cc2)cc1", "note": "(stereo not shown)", "inhibition at 170 µg/mL": 98.5}
{"smiles": "CN(C)CCCOc1ccc(C2Cc3ccc(NC(=O)COc4ccc5ccccc5c4)cc3C(=O)N2CCC(=O)N(CC(N)=O)Cc2cccc(C(F)(F)F)c2)cc1", "note": "(stereo not shown)", "inhibition at 170 µg/mL": 99.6}
{"smiles": "Cc1cc(C)c(C(=O)C(=O)Nc2ccc3c(c2)C(=O)N(CCC(=O)N(CCN(C)C)CC(N)=O)C(c2ccc4ccccc4n2)C3)c(C)c1", "note": "(stereo not shown)", "inhibition at 170 µg/mL": 99.2}
{"smiles": "COc1ccc(Br)c(C(=O)Nc2ccc3c(c2)C(=O)N(Cc2ccc(C(=O)N(CC(N)=O)Cc4cccc(C(F)(F)F)c4)cc2)C(c2ccc(OCCCN(C)C)cc2)C3)c1", "note": "(stereo not shown)", "inhibition at 170 µg/mL": 99.4}
{"smiles": "COc1cc(OC)cc(C2Cc3ccc(NC(=O)C4CCC(C)CC4)cc3C(=O)N2CCC(=O)N(CCN(C)C)CC(N)=O)c1", "note": "(stereo not shown)", "inhibition at 170 µg/mL": 99.8}
{"smiles": "CCCCCC/C=C/C(=O)Nc1ccc2c(c1)C(=O)N(CCC(=O)N(CCN(C)C)CC(N)=O)C(c1ccccc1)C2", "note": "(stereo not shown)", "inhibition at 170 µg/mL": 99.8}
{"smiles": "COc1cc(OC)cc(C2Cc3ccc(NC(=O)Cc4cccc(C(F)(F)F)c4)cc3C(=O)N2Cc2ccc(C(=O)N(CCN(C)C)CC(N)=O)cc2)c1", "note": "(stereo not shown)", "inhibition at 170 µg/mL": 99.2}
{"smiles": "CN(C)CCCOc1ccc(C2Cc3ccc(NC(=O)c4cccc(C(F)(F)F)c4F)cc3C(=O)N2Cc2ccc(C(=O)N(CC(N)=O)Cc3cccc(C(F)(F)F)c3)cc2)cc1", "note": "(stereo not shown)", "inhibition at 170 µg/mL": 99.6}
{"smiles": "CN(C)CCN(CC(N)=O)C(=O)CCN1C(=O)c2cc(NC(=O)C3(c4ccccc4)CC3)ccc2CC1c1cccc2ccccc12", "note": "(stereo not shown)", "inhibition at 170 µg/mL": 99}
{"smiles": "COc1cc(OC)cc(C2Cc3ccc(NC(=O)C(=O)c4c(C)cc(C)cc4C)cc3C(=O)N2CCC(=O)N(CCN(C)C)CC(N)=O)c1", "note": "(stereo not shown)", "inhibition at 170 µg/mL": 99.5}
{"smiles": "CN(C)CCN(CC(N)=O)C(=O)CCN1C(=O)c2cc(NC(=O)c3ccc(C#N)cc3)ccc2CC1c1ccc(C(C)(C)C)cc1", "note": "(stereo not shown)", "inhibition at 170 µg/mL": 98.5}
{"smiles": "CN(C)CCCOc1ccc(C2Cc3ccc(NC(=O)CCC4CCCCC4)cc3C(=O)N2CCC(=O)N(CCN(C)C)CC(N)=O)cc1", "note": "(stereo not shown)", "inhibition at 170 µg/mL": 99}
{"smiles": "CCCCCC/C=C/C(=O)Nc1ccc2c(c1)C(=O)N(Cc1ccc(C(=O)N(CCOC)CC(N)=O)cc1)C(c1ccc(C(C)(C)C)cc1)C2", "note": "(stereo not shown)", "inhibition at 170 µg/mL": 98.2}
